From ChEMBL document CHEMBL5241092, “The antibacterial activity of fluoroquinolone derivatives: An update (2018-2021)” (2021)
In brackets after ≈: the same amount, converted by molar mass.

What was measured:
Assay type in all cases: functional
Staphylococcus aureus = test: Antibacterial activity against Staphylococcus aureus
Klebsiella pneumoniae = test: Antibacterial activity against Klebsiella pneumoniae
[1] = system: Lactobacillus acidophilus; test: Antibacterial activity against Lactobacillus acidophilus
Escherichia coli = test: Antibacterial activity against Escherichia coli
Enterococcus faecalis = test: Antibacterial activity against Enterococcus faecalis
Listeria monocytogenes = test: Antibacterial activity against Listeria monocytogenes
[2] = system: Yersinia pseudotuberculosis; test: Antibacterial activity against Yersinia pseudotuberculosis
Bacillus cereus = test: Antibacterial activity against Bacillus cereus
Pseudomonas aeruginosa = test: Antibacterial activity against Pseudomonas aeruginosa
Bacillus subtilis = test: Antibacterial activity against Bacillus subtilis

Row | SMILES | MIC (Staphylococcus aureus) [µg/mL] | MIC (Klebsiella pneumoniae) [µg/mL] | MIC [1] [µg/mL] | MIC (Escherichia coli) [µg/mL] | MIC (Enterococcus faecalis) [µg/mL] | MIC (Listeria monocytogenes) [µg/mL] | MIC [2] [µg/mL] | MIC (Bacillus cereus) [µg/mL] | MIC (Pseudomonas aeruginosa) [µg/mL] | MIC (Bacillus subtilis) [µg/mL]
1 | COc1c(N2C[C@H]3CCCN(C(=O)c4ccc(C)cc4)[C@H]3C2)c(F)cc2c(=O)c(C(=O)O)cn(C3CC3)c12 | ≤ 1.23 | < 1.23 | < 1.23 | < 1.23 | ≤ 1.23 | ≤ 1.23 | < 1.23 | ≤ 1.23 | < 1.23 | –
2 | COc1c(N2C[C@H]3CCCN(C(=O)c4ccc(Br)cc4)[C@H]3C2)c(F)cc2c(=O)c(C(=O)O)cn(C3CC3)c12 | ≤ 1.23 | < 1.23 | < 1.23 | < 1.23 | ≤ 1.23 | ≤ 1.23 | < 1.23 | ≤ 1.23 | < 1.23 | –
3 | COc1c(N2C[C@H]3CCCN(S(=O)(=O)c4ccccc4)[C@H]3C2)c(F)cc2c(=O)c(C(=O)O)cn(C3CC3)c12 | < 2.42 | < 2.42 | < 2.42 | < 2.42 | < 2.42 | < 2.42 | < 2.42 | – | < 2.42 | –
4 | COc1ccc(S(=O)(=O)N2CCC[C@@H]3CN(c4c(F)cc5c(=O)c(C(=O)O)cn(C6CC6)c5c4OC)C[C@@H]32)cc1 | < 2.42 | < 2.42 | < 2.42 | < 2.42 | < 2.42 | < 2.42 | < 2.42 | – | < 2.42 | –
5 | COc1c(N2C[C@H]3CCCN(S(=O)(=O)c4ccc(C)cc4)[C@H]3C2)c(F)cc2c(=O)c(C(=O)O)cn(C3CC3)c12 | < 2.42 | < 2.42 | < 2.42 | < 2.42 | < 2.42 | < 2.42 | < 2.42 | – | < 2.42 | –
6 | COc1c(N2C[C@H]3CCCN(C(=O)c4ccccc4)[C@H]3C2)c(F)cc2c(=O)c(C(=O)O)cn(C3CC3)c12 | < 1.23 | < 1.23 | < 1.23 | < 1.23 | < 1.23 | < 1.23 | < 1.23 | < 1.23 | < 1.23 | –
7 | C=CCn1c(SCC(=O)N2CCN(c3cc4c(cc3F)c(=O)c(C(=O)O)cn4C3CC3)CC2)nnc1-c1ccccc1 | 1.42 (≈ 2.41 µM) | 1.42 (≈ 2.41 µM) | – | 1.42 (≈ 2.41 µM) | – | – | – | – | 1.42 (≈ 2.41 µM) | –
8 | COc1c(N2C[C@@H]3CCCN[C@@H]3C2)c(F)cc2c(=O)c(C(=O)O)cn(C3CC3)c12 [MOXIFLOXACIN] | – | – | – | – | < 0.6 | < 0.6 | – | < 0.6 | – | –
9 | CCn1c(S)nnc1CN1CCN(c2cc3c(cc2F)c(=O)c(C(=O)O)cn3CC)CC1 | < 0.24 | – | – | < 0.24 | < 0.24 | – | < 0.24 | < 0.24 | < 0.24 | –
10 | COc1c(N2C[C@H]3CCCN(S(=O)(=O)c4ccc(F)cc4)[C@H]3C2)c(F)cc2c(=O)c(C(=O)O)cn(C3CC3)c12 | < 2.42 | < 2.42 | < 2.42 | < 2.42 | < 2.42 | < 2.42 | < 2.42 | – | < 2.42 | –
11 | COc1c(N2C[C@H]3CCCN(C(=O)c4ccc(F)cc4)[C@H]3C2)c(F)cc2c(=O)c(C(=O)O)cn(C3CC3)c12 | ≤ 1.23 | < 1.23 | < 1.23 | < 1.23 | ≤ 1.23 | ≤ 1.23 | < 1.23 | ≤ 1.23 | < 1.23 | –
12 | COc1c(N2C[C@H]3CCCN(Cc4ccc([N+](=O)[O-])cc4)[C@H]3C2)c(F)cc2c(=O)c(C(=O)O)cn(C3CC3)c12 | < 2.39 | < 2.39 | < 2.39 | < 2.39 | < 2.39 | < 2.39 | < 2.39 | – | < 2.39 | –
13 | O=C(O)c1cn(C2CC2)c2cc(N3CCN(Cn4nc(-c5ccccn5)oc4=S)CC3)c(F)cc2c1=O | 0.031 (≈ 0.0593 µM) | – | – | 0.031 (≈ 0.0593 µM) | – | – | – | – | 0.031 (≈ 0.0593 µM) | 0.031 (≈ 0.0593 µM)
14 | COc1c(N2C[C@H]3CCCN(Cc4ccc(Br)cc4)[C@H]3C2)c(F)cc2c(=O)c(C(=O)O)cn(C3CC3)c12 | < 2.39 | < 2.39 | < 2.39 | < 2.39 | < 2.39 | < 2.39 | < 2.39 | – | < 2.39 | –
15 | COc1c(N2C[C@H]3CCCN(Cc4ccc(F)cc4)[C@H]3C2)c(F)cc2c(=O)c(C(=O)O)cn(C3CC3)c12 | < 2.39 | < 2.39 | < 2.39 | < 2.39 | < 2.39 | < 2.39 | < 2.39 | – | < 2.39 | –
16 | COc1c(N2C[C@H]3CCCN(C(=O)c4ccc(Cl)cc4)[C@H]3C2)c(F)cc2c(=O)c(C(=O)O)cn(C3CC3)c12 | ≤ 1.23 | < 1.23 | < 1.23 | < 1.23 | ≤ 1.23 | ≤ 1.23 | < 1.23 | ≤ 1.23 | < 1.23 | –
17 | COc1ccc(C(=O)N2CCC[C@@H]3CN(c4c(F)cc5c(=O)c(C(=O)O)cn(C6CC6)c5c4OC)C[C@@H]32)cc1 | ≤ 1.23 | < 1.23 | < 1.23 | < 1.23 | ≤ 1.23 | ≤ 1.23 | < 1.23 | ≤ 1.23 | < 1.23 | –
